Data published in patent US8492614B2, “Plant biochemical systems and uses thereof” (The Board of Trustees of the University of Illinois, priority 2007, dated 2013).
Entries after “also recorded” stand apart in the source; their conditions may differ. Blank lines part the entries; values can stand above or below the molecule they belong to.

How the values were obtained:
[1] = system: Lhcb expression; test: Lhcb RNA levels by northern analysis after ABA treatment of etiolated seedlings; assay type: in vivo, Arabidopsis; details: 800 nM ABA
Protocol: Six-d-old dark-grown Arabidopsis seedlings col wild type or insertion mutants were grown on 0.8% agarose plates containing only 0.5× Murashige and Skoog media as described in Lapik and Kaufman (2003). The growth media contains no additional sugar, hormones, vitamins or other nutrients. Seedlings were irradiated with a single pulse (10 s) of low fluence BL (total fluence of 10^2 μmol m^−2); or a single pulse (100 s) of saturation fluence BL (total fluence of 10^4 μmol m^−2); or no light (DK), and/or, treated with 800 nM ABA dissolved in ethanol, or ethanol alone, placed back in the dark for two h after which total RNA was extracted and used for northern blot analysis (Lapik and Kaufman, 2003). Lhcb and rDNA probes used, quantitation methods, and means of normalization to rRNA levels are described elsewhere (Marrs and Kaufman, (1991) Planta 183: 327-333). […] All induction data is correct for loading through the quantitation of the rRNA as described (Warpeha and Kaufman, (1990) Planta 182: 553-558). […] Real time quantitative PCR (qPCR) was used to measure the level of Lhcb RNA induction in response to a single pulse of low fluence blue light as a confirmation of the Northern blot analysis methods. […] The qPCR-derived information (4 different RNA sets of Dark and BL-treated) data was analyzed using (ΔΔCoT). […]

[2] = system: etiolated Arabidopsis seedlings; test: Cotyledon natural fluorescence by deconvoluting microscopy; assay type: in vivo; details: hormone applied to etiolated cotyledons; 24 h; 1.0 μM ABA, 500 μM JA
Protocol: Fluorescent images were obtained of living unfixed seedlings 24 h post BL or ABA treatment as described in the “Plant Growth and Preparation of Tissue” section. Optical sectioning was achieved by using a Zeiss Axiovert 200M microscope (Carl Zeiss), equipped with ApoTome (collected by grid projection), and a digital camera and the 4#,6-diamino-phenylindole, fluorescein isothiocyanate, and Texas Red filter sets (Chroma). Photographs of whole cotyledon fluorescence were snapped on the same microscope set up, minus the apoTome setting.
The preparation of whole cell extracts from the areal portions of the seedlings for the quantification of Phe levels and PD1 activity levels is described in (Warpeha et al., Plant Physiol. 143:1590-1600, 2007). Phe concentration is determined by HPLC. […] Natural fluorescence of the cotyledons is visualized and quantitated by deconvoluting microscopy using a “DAPI-Long Pass” filter which allows excitation between 300-380 nm and emits with a cutoff […] 400 nm.
If the Phe produced by activated PD1 is necessary for the ability of young etiolated seedlings to respond to UV-B, salt or heat stress, then it is possible that the addition of exogenous Phe (effectively cross feeding Phe) could restore a wild type response to GCR1, GPA1 and PD1 mutants when assayed for cotyledon fluorescence and the ability to survive sub-lethal levels of UV-C. To determine if exogenous Phe can restore wild type responses to GCR1, GPA, and PD1 mutants, 1 mM Phe is added to the top agar during planting and the experiment described above specifically testing for cotyledon surface fluorescence and the ability to survive sub-lethal levels of UV-C is repeated. Serine and […] are used as negative controls in these assays.
The experiments described above for examining if GCR1, GPA1 and PD1 are required for young etiolated seedlings to respond to UV-B, salt or heat stress are performed but with ABA, ACC, JA and SA substituting for UV-B, salt and heat. For these experiments, ABA is tested at 1.0 μM dissolved in ethanol and applied as an atomized mist. […]

[3] = system: PD1; test: Cytosolic PD1 activity after ABA treatment of etiolated seedlings; assay type: in vivo, Arabidopsis; details: ABA treatment of etiolated wild type
Excerpt: Activated GPA1 has a specific physical interaction with PD1 that results in a significant increase in PD1 activity. PD1 is the only member of the PD family that is expressed in etiolated Arabidopsis. […] The increase in PD1 activity in response to BL or ABA treatment also requires GCR1. BL Irradiation or ABA treatment of pd1, gcr1 and gpa1 T-DNA insertion mutants result in none of these events described for wt. We conclude that GCR1, GPA1 and PD1 form a signaling chain that is responsible for ABA and BL induced synthesis of phenylpyruvate, phenylalanine and a series of UV absorbing products from the phenylpropanoid pathway. In etiolated seedlings phenylalanine is synthesized via a phenylpyruvate intermediate, much like in bacteria and fungi, and not via an arogenate pathway (Warpeha et al., Plant Physiol. 140:844-855).
All plants are returned to complete darkness for two hours after which cytosolic extracts are prepared and assayed as described infra.

[4] = Stability of absorbance spectra of cell free extracts with or without phenylalanine; assay type: physicochemical, Arabidopsis; details: cell free extracts in buffer; 24 h, room temperature or +4° C., lab lighting
Protocol: Cell free extracts were left at room temperature for 24 h after a 10^5 μmol m^−2 treatment of UV (366 nm) in lab lighting (which is fluorescent).

[5] = target: T1, PD1 (Arabidopsis thaliana, UniProt Q9ZUY3); test: In vitro GPA1-PD1 activation assay; assay type: biochemical; details: compared with inactive (GDP or GDPβS) or no GPA1
T1 construct: Full-length GPA1 and PD1 templates were amplified, prepared, and purified by the methods described; made in house; host or cells: cell-free: TNT T7 coupled wheat germ extract system (Promega)
T1 sequence (Q9ZUY3 25-424): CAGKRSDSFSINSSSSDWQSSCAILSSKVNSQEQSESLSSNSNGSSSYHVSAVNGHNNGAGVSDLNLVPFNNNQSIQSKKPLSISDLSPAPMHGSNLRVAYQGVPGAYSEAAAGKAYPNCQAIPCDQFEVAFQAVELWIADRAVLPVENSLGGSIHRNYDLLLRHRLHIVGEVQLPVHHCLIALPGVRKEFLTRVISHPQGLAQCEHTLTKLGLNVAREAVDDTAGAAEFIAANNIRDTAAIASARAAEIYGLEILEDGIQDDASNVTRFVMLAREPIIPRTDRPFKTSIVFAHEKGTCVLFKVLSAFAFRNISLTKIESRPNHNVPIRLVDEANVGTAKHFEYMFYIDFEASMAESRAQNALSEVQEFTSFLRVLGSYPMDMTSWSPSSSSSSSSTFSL
T1 sequence (P18064 1-383 partner): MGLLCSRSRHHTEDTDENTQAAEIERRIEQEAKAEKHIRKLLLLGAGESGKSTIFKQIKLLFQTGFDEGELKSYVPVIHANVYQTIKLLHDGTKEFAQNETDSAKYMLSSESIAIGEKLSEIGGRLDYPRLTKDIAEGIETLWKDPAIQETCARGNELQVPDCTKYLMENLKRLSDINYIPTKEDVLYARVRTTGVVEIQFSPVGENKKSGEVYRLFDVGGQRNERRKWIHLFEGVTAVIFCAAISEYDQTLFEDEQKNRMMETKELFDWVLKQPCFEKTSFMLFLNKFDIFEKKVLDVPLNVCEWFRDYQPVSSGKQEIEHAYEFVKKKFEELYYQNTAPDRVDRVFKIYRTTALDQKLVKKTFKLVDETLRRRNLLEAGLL
Protocol: Full-length GPA1 and PD1 templates were amplified, prepared, and purified by the methods described (Lapik and Kaufman, 2003). GPA1 and PD1 proteins were individually produced by coupled in vitro transcription/translation using TNT T7 coupled wheat germ extract system (Promega). In vitro association assays were conducted by mixing approximately equimolar concentrations of GPA1 with PD1 in PD assay buffer at 4° C. with modifications for plants: 50 mM K2PO4 pH 7.5, 1.0 mM dithiothreitol, […], and 0.5% protease inhibitor cocktail for plants. Activated GPA1 was achieved by preincubation with […] (a nonhydrolyzable GTP analog). Inactivated GPA1 was achieved by preincubation with GDP, or GDPγS (a nonhydrolyzable GDP analog). […] Reaction mixtures were stopped at time zero and various time points thereafter by adding 0.5 volume of 1N NaOH.
The increase in activity occurs quickly as approximately 90% of the measured increase in activity occurs within the first 10 min of incubation.

Molecule: CC1=CC(=O)CC(C)(C)[C@@]1(O)/C=C/C(C)=C\C(=O)O [ABA, abscisic acid]
Lhcb RNA accumulation in mutant seedlings ([1]; gcr1, gpa1, prn1, nf-y-b9, nf-y-a5 mutants): fails to induce Lhcb RNA accumulation
Lhcb expression in wild type seedlings ([1]; six-d-old etiolated wild type): induces Lhcb expression
accumulation of UV- and BL-absorbing fluorescent material in cotyledons [2]: phenotype identical to that observed in wild-type seedlings for BL irradiation; also recorded: response pattern is identical to that of UV-B, salt and heat
cytosolic PD1 activity [3]: increase in cytosolic PD1 activity

Molecule: CC/C=C\C[C@H]1C(=O)CC[C@@H]1CC(=O)O [JA, jasmonic acid, reference compound]
accumulation of UV- and BL-absorbing fluorescent material in cotyledons [2]: response pattern is identical to that of UV-B, salt and heat

Molecule: CSCC[C@H](N)C(=O)O [L-methionine, reference compound]
stability of the extract solution (absorbance spectra, pigments) over time [4]: did not increase stability of the solution

increase in PD1 activity [5]: 2 fold
B1: activated GPA1: Arabidopsis G-protein Gα subunit made by in vitro transcription/translation, activated with GTPγS (protein, UniProt P18064 2-383, looked up)
Guanine nucleotide-binding …: GLLCSRSRHHTEDTDENTQAAEIERRIEQEAKAEKHIRKLLLLGAGESGKSTIFKQIKLLFQTGFDEGELKSYVPVIHANVYQTIKLLHDGTKEFAQNETDSAKYMLSSESIAIGEKLSEIGGRLDYPRLTKDIAEGIETLWKDPAIQETCARGNELQVPDCTKYLMENLKRLSDINYIPTKEDVLYARVRTTGVVEIQFSPVGENKKSGEVYRLFDVGGQRNERRKWIHLFEGVTAVIFCAAISEYDQTLFEDEQKNRMMETKELFDWVLKQPCFEKTSFMLFLNKFDIFEKKVLDVPLNVCEWFRDYQPVSSGKQEIEHAYEFVKKKFEELYYQNTAPDRVDRVFKIYRTTALDQKLVKKTFKLVDETLRRRNLLEAGLL
modifications: GTPγS-bound
